# According to patent publication US20120309744A1, “DOSING REGIMENS AND METHODS FOR TREATING OR PREVENTING HEPATOCELLULAR CARCINOMA” (NBI Pharmaceuticals, Inc., priority 2011, published 2012):
# Key:
# [1] = test system: dysplastic nodule or early HCC; test: Subject with HCV-related liver cirrhosis and dysplastic nodule or early HCC given MK4 and an ACE-I; assay type: in vivo, human
# Excerpt: Treatment with MK4 and an ACE-I normalizes AFP and AFP-L3 tumor markers and the hepatic nodule disappears. A subject with hepatitis C virus (HCV)-related liver cirrhosis is diagnosed with what was termed a “dysplastic nodule or early HCC.” The diagnosis is based on enhanced computed tomography (CE-CT) study and elevations of the tumor markers alpha-fetoprotein (AFP) and lectin-reactive alpha-fetal protein (AFP-L3).
# MMP-3 promoter = test: MMP promoter/luciferase reporter assay in transfected HCC cells; assay type: cell-based; details: HepG2 cells, luciferase reporter
# Excerpt: To investigate the mechanism of suppression of MMP-1, -3 and -7 expression by MK4, HCC cells will be transiently transfected with MMP-1, -3 and -7 promoter/luciferase reporter plasmids and then treated with MK4.
# hepatocellular carcinoma [2] = test: Randomized study of oral MK4 versus no MK4 in patients with hepatocellular carcinoma; assay type: in vivo, human
# Experimental: Patients with hepatocellular carcinoma are randomized to receive oral MK4 (90 mg/day) or no MK4. All patients receive conventional therapy with percutaneous tumor ablation and/or transcatheter arterial embolization. The rate of portal vein invasion at 12 months of follow-up will be reduced in MK4 recipients as compared with controls.
# MMP-1 = test: Suppression of TPA-induced MMP expression; assay type: cell-based
# Excerpt: (§1) Since MK4 inhibits MMP-1, -3 and -7 mRNA expression, the ability of MK4 to suppress TPA-induced MMP expression will be investigated. […] MK4 also suppresses the MMP-1 and -3 protein expression induced by TPA.
# MMP-3 = test: Suppression of TPA-induced MMP expression; assay type: cell-based
# Excerpt: as §1
# MMP-7 = test: Suppression of TPA-induced MMP expression; assay type: cell-based
# Excerpt: as §1
# hepatocellular carcinoma [3] = test: Subject with hepatocellular carcinoma given oral MK4 (induction then maintenance); assay type: in vivo, human
# Experimental: A subject suffering from hepatocellular carcinoma is administered oral MK4 (90 mg daily once a day). After the administration of MK4 for six weeks, tumor sizes will decrease and the diameter of the main tumor is smaller. […] This case report provides compelling evidence that MK4 may be useful in the treatment of HCC.
# [4] = after one-year combined treatment, MK-4 45 mg daily for additional 48 months, ACE-I halted
# [5] = oral MK4 90 mg daily with ACE-I (e.g., perindopril; 4 mg/day)
# [6] = after 12 months at 90 mg/day, additional twenty-two months at 45 mg daily once a day
# [7] = after six weeks at 90 mg, additional twenty-two months at 45 mg daily once a day
smiles,measurement,setting,value
"CC(C)=CCC/C(C)=C/CC/C(C)=C/CC/C(C)=C/CC1=C(C)C(=O)c2ccccc2C1=O [MK4, menatetrenone]",serum level of AFP,[1]; [4],remain in the normal range
same,serum level of AFP-L3,[1]; [4],remain in the normal range
same,serum level of AFP,[1]; [5],gradually decrease
same,serum level of AFP-L3,[1]; [5],gradually decrease
same,MMP-3 promoter activity,MMP-3 promoter,decrease MMP-3 promoter activity weakly
same,rate of portal vein invasion,"hepatocellular carcinoma [2]; 12 months of follow-up, oral MK4 90 mg/day plus conventional therapy, versus controls",reduced
same,recurrence,hepatocellular carcinoma [2]; [6],no signs of recurrence are observed
same,tumor markers,hepatocellular carcinoma [2]; [6],remain within the normal limits
same,MMP-1 mRNA expression induced by TPA,MMP-1,dose-dependently inhibits
same,MMP-1 promoter activity induced by TPA,MMP-1,dose-dependently suppresses
same,MMP-1 protein expression induced by TPA,MMP-1,suppresses
same,MMP-3 mRNA expression induced by TPA,MMP-3,dose-dependently inhibits
same,MMP-3 promoter activity induced by TPA,MMP-3,dose-dependently suppresses
same,MMP-3 protein expression induced by TPA,MMP-3,suppresses
same,MMP-7 mRNA expression induced by TPA,MMP-7,dose-dependently inhibits
same,MMP-7 promoter activity induced by TPA,MMP-7,dose-dependently suppresses
same,recurrence,hepatocellular carcinoma [3]; [7],no signs of recurrence are observed
same,tumor markers,hepatocellular carcinoma [3]; [7],remain within the normal limits
same,diameter of the main tumor,hepatocellular carcinoma [3]; oral 90 mg daily once a day for six weeks,smaller
